Measurements taken from ChEMBL document CHEMBL1201862, “PubChem BioAssay data set” (2004).
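Briefly, cells in 96-well plates were exposed to five compound concentrations for 48 h, and endpoints were estimated by linear interpolation. The concentration for 50% growth inhibition is given as GI50.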 Calls of active or inactive are those of the source. No stated cut-off is given here; in the data, active = GI50 up to about 1.1 µM and inactive = higher.

Experiments:
Assay in all cases: NCI tumour cell line growth inhibition, 48 h
IGROV-1 = test system: IGROV-1
K562 = test system: K562
KM12 = test system: KM12
LOX IMVI = test system: LOX IMVI
M14 = test system: M14
MCF7 = test system: MCF7
Malme-3M = test system: Malme-3M
NCI-H226 = test system: NCI-H226
NCI-H23 = test system: NCI-H23
NCI-H460 = test system: NCI-H460
OVCAR-3 = test system: OVCAR-3
RXF 393 = test system: RXF 393
SF-268 = test system: SF-268
SF-295 = test system: SF-295
SK-MEL-5 = test system: SK-MEL-5
SK-OV-3 = test system: SK-OV-3
SN12C = test system: SN12C
SW-620 = test system: SW-620
TK-10 = test system: TK-10
U-251 = test system: U-251

SMILES | GI50 (IGROV-1) | GI50 (K562) | GI50 (KM12) | GI50 (LOX IMVI) | GI50 (M14) | GI50 (MCF7) | GI50 (Malme-3M) | GI50 (NCI-H226) | GI50 (NCI-H23) | GI50 (NCI-H460) | GI50 (OVCAR-3) | GI50 (RXF 393) | GI50 (SF-268) | GI50 (SF-295) | GI50 (SK-MEL-5) | GI50 (SK-OV-3) | GI50 (SN12C) | GI50 (SW-620) | GI50 (TK-10) | GI50 (U-251)
CCN1CCC(O)(/C=C/c2ccc(C)cc2C)C(C(=O)/C=C/c2ccc(C)cc2C)C1 (stereo not given) | 2.89 µM (inactive) | 3.13 µM (inactive) | 2.33 µM (inactive) | 1.76 µM (inactive) | 3.55 µM (inactive) | 2.69 µM (inactive) | 5.82 µM (inactive) | 2.77 µM (inactive) | 2.77 µM (inactive) | 1.35 µM (inactive) | 2.53 µM (inactive) | 3.21 µM (inactive) | 2.4 µM (inactive) | 2.08 µM (inactive) | 3.04 µM (inactive) | 9.57 µM (inactive) | 2.72 µM (inactive) | 3.16 µM (inactive) | 1.64 µM (inactive) | 3.39 µM (inactive)
O=c1[nH]nc(-c2ccc([N+](=O)[O-])cc2)n1/N=C/c1ccc([N+](=O)[O-])cc1 | > 100 µM (inactive) | 43.7 µM (inactive) | 55.3 µM (inactive) | 0.483 µM (active) | > 100 µM (inactive) | 47.9 µM (inactive) | > 100 µM (inactive) | > 100 µM (inactive) | 60.7 µM (inactive) | 30.4 µM (inactive) | > 100 µM (inactive) | 56.9 µM (inactive) | 72.9 µM (inactive) | > 100 µM (inactive) | 48.4 µM (inactive) | > 100 µM (inactive) | > 100 µM (inactive) | > 100 µM (inactive) | > 100 µM (inactive) | 71.4 µM (inactive)
COc1ccc2[nH]cc(C(=O)C(=O)NC34CC5CC(CC(C5)C3)C4)c2c1 | 58.3 µM (inactive) | 4.44 µM (inactive) | > 26.9 µM (inactive) | 7.21 µM (inactive) | 13.9 µM (inactive) | 10.1 µM (inactive) | 46.9 µM (inactive) | 22.9 µM (inactive) | > 72.6 µM (inactive) | 7.31 µM (inactive) | 8.97 µM (inactive) | 3.22 µM (inactive) | > 61.1 µM (inactive) | 6.9 µM (inactive) | 32.2 µM (inactive) | 73.3 µM (inactive) | 18.9 µM (inactive) | 38.9 µM (inactive) | 48.8 µM (inactive) | 13.5 µM (inactive)
CC1CC(=O)Nc2cc(Cl)ccc2N1C(=O)C1CC1 (stereo not given) | > 100 µM (inactive) | > 100 µM (inactive) | > 100 µM (inactive) | > 100 µM (inactive) | > 100 µM (inactive) | > 100 µM (inactive) | > 100 µM (inactive) | > 100 µM (inactive) | > 100 µM (inactive) | > 100 µM (inactive) | > 100 µM (inactive) | > 100 µM (inactive) | > 100 µM (inactive) | > 100 µM (inactive) | > 100 µM (inactive) | > 100 µM (inactive) | > 100 µM (inactive) | > 100 µM (inactive) | > 100 µM (inactive) | > 100 µM (inactive)
CCN(CC)c1ccc(/C=C2/C[N+](C)(C)C/C(=C/c3ccc(N(CC)CC)cc3)C2=O)cc1 | 2.19 µM (inactive) | 1.01 µM (active) | 1.23 µM (inactive) | 1.69 µM (inactive) | 2.4 µM (inactive) | 1.96 µM (inactive) | 1.95 µM (inactive) | 6.21 µM (inactive) | 1.69 µM (inactive) | 2.92 µM (inactive) | 2.12 µM (inactive) | 2.77 µM (inactive) | 2.58 µM (inactive) | 11.9 µM (inactive) | 1.67 µM (inactive) | 9.29 µM (inactive) | 3.17 µM (inactive) | 2.67 µM (inactive) | 9.84 µM (inactive) | 2.37 µM (inactive)
COc1cc2ccc1OCc1cccc(n1)COc1ccc(cc1OC)/C=N\c1ccc(cc1)/N=C\2 | > 100 µM (inactive) | > 100 µM (inactive) | > 100 µM (inactive) | > 100 µM (inactive) | > 100 µM (inactive) | > 100 µM (inactive) | > 100 µM (inactive) | > 100 µM (inactive) | > 100 µM (inactive) | > 100 µM (inactive) | > 100 µM (inactive) | > 100 µM (inactive) | > 100 µM (inactive) | > 100 µM (inactive) | > 100 µM (inactive) | > 100 µM (inactive) | > 100 µM (inactive) | > 100 µM (inactive) | > 100 µM (inactive) | > 100 µM (inactive)
CN(C)CCNc1ccc2nnn3c4ccccc4c(=O)c1c23 | 3.38 µM (inactive) | 2.86 µM (inactive) | 3.85 µM (inactive) | 1.62 µM (inactive) | 3.07 µM (inactive) | 4.32 µM (inactive) | 3.01 µM (inactive) | 1.74 µM (inactive) | 3.91 µM (inactive) | 2.25 µM (inactive) | 3.36 µM (inactive) | 5.51 µM (inactive) | 4.22 µM (inactive) | 3.57 µM (inactive) | 2.15 µM (inactive) | 7.87 µM (inactive) | 2.96 µM (inactive) | 1.59 µM (inactive) | 3.31 µM (inactive) | 1.95 µM (inactive)
